# Laboratory results reported in patent publication US20050239873A1 (priority 1999, published 2005).
# Where “and” joins values, the source holds several entries; their conditions need not be identical. Identical values can stand only once.
# Experiments:
# Bcl-xL(ΔC) WT = target: T1, Bcl-xL(ΔC) WT (Homo sapiens, UniProt Q07817); assay: Pore-forming activity, calcein release from liposomes; type: biochemical
# T1 construct: inferred from Ni-NTA purification and the pET22b(+) NdeI/XhoI cloning); made in house; host or cells: Escherichia coli BL21(DE3) carrying pUB520
# T1 sequence (Q07817 1-211 limits assumed, stated change not applied): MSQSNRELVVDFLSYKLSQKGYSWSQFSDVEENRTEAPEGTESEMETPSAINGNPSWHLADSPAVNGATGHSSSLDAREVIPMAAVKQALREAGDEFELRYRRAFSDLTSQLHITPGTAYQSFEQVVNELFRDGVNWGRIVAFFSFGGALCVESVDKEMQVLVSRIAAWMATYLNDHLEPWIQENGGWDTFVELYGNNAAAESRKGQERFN
# Method: Large unilamellar vesicles composed of 60% dioleoylphophatidylcholine and 40% dioleoylphosphatidylglycerol were prepared by the extrusion method of Mayer et al., supra. Lipid stocks, in chloroform, were mixed and dried under a stream of nitrogen gas. The lipid was resuspended by vortexing for 30 min in a solution of 40 mM calcein (Molecular Probes), 25 mM KCl, and 10 mM KOAc, pH 5.0. After 10 freeze-thaw cycles, the lipid suspension was extruded through two 0.1 μm pore diameter Nucleopore filters. Non-entrapped dye was removed by passage over a Sephadex G10 column (Amersham Biosciences). Lipid concentration was measured using the ammonium ferrothiocyanate method (Stewart, Anal. Biochem. 104:10-14, 1980).
# For pore assays, recombinant truncated Bcl-2 family protein or mutant protein (Bcl-xL(ΔC)) (500 nM) was added to large unilamellar vesicles (60 μM lipid concentration) in 100 mM KCl, 10 mM KOAc, pH 5.0, and fluorescence measured (490 nm excitation, 520 nm emission) with a Fluoromax-3 spectrophotometer. Peptides of the BH3 domain were incubated with the BCl-xL(ΔC) 5 min prior to mixing with liposomes. AA1 was added to liposomes 1 min before adding the Bcl-xL(ΔC) protein. Samples for kinetic assays were analyzed in a thermostatted cuvette at 37° C. with constant stirring. Dose responses were measured in black quartz microplates (Hellma) at room temperature. Calcein release was expressed as percentage of maximum release with detergent lysis (0.1% Triton X-100).
# Bcl-xL(ΔC) = target: T2, Bcl-xL(ΔC) (Homo sapiens, UniProt Q07817); assay: Displacement of AA bound to Bcl-xL(ΔC); type: binding
# T2 construct: made in house; host or cells: Escherichia coli BL21(DE3) carrying pUB520
# T2 sequence (Q07817 1-211 limits assumed, stated change not applied): as above
# Method: The non-peptide BCl-xL inhibitors, BH3I-1 and BH3I-2, interact with Phe-97 and Ala-142 in the BCl-xL hydrophobic pocket by NMR chemical shift perturbation (Degterev et al., Nat. Cell Biol. 3:173-182, 2001; Lugovskoy et al., J. Amer. Chem. Soc. 124:1234-1240, 2002). It was determined that BH3I-1 competes with AA1 for Bcl-xL(ΔC) binding.
# [1] = system: TAMH cells over-expressing Bcl-xL E92L; assay: Cytotoxicity (Alamar Blue) in Bcl-xL transfectants; type: cell-based, murine; conditions: 24 h
# Method: (§1) TAMH cells were transfected with DNA encoding each of the mutant BCl-xL proteins by lipofection (See Example 1 for method). For analysis of BCl-xL expression, 20 μg of cell protein was separated by 20% SDS-PAGE and transferred to nitrocellulose membranes. Immunodetection of BCl-xL was carried out using rabbit anti-Bcl-xL antibody and Protein A/horseradish peroxidase conjugate, followed by chemiluminescent detection. Cells were grown to about 80% confluence in 96-well plates followed by addition of 100 μl of 2X AA1 or staurosporine (STS) solution in complete medium. STS is a natural product originally isolated from the bacterium Streptomyces and found to be capable of inducing apoptosis in certain cells and which induction of apoptosis could be blocked by the expression of a Bcl-2 family protein. Cell viability was determined spectrophotometrically after 24 h treatment as the ratio of reduced and oxidized Alamar Blue (BIOSOURCE) at 570 nm and 600 nm, respectively. All results were normalized against DMSO controls. LD50 values were calculated by non-linear regression analysis using Prism software (Graphpad).
# [2] = system: TAMH cells over-expressing Bcl-xL WT; assay: Cytotoxicity (Alamar Blue) in Bcl-xL transfectants; type: cell-based, murine; conditions: 24 h
# Method: as §1
# [3] = system: TAMH cells over-expressing Bcl-xL A142L; assay: Cytotoxicity (Alamar Blue) in Bcl-xL transfectants; type: cell-based, murine; conditions: 24 h
# Method: as §1
# [4] = system: TAMH cells over-expressing Bcl-xL F146L; assay: Cytotoxicity (Alamar Blue) in Bcl-xL transfectants; type: cell-based, murine; conditions: 24 h
# Method: as §1
# [5] = system: TAMH cells over-expressing Bcl-xL F97W; assay: Cytotoxicity (Alamar Blue) in Bcl-xL transfectants; type: cell-based, murine; conditions: 24 h
# Method: as §1
# [6] = system: TAMH vector-only control cells; assay: Cytotoxicity (Alamar Blue); type: cell-based, murine; conditions: 24 h
# Method: as §1
# [7] = system: mitochondria with normal levels of Bcl-xL expression; assay: JC-1 membrane potential of isolated mitochondria; design: species or system murine
# Method: Isolated mitochondria were loaded with JC-1 prior to treatment, and mitochondrial labeling was determined using FACS. […] Antimycin A-treated mitochondria with high levels of Bcl-xL had lower levels of JC-1 staining than parallel samples treated with CCCP. Uncoupled mitochondria still retain a significant Donnan potential because of trapped anionic species and it is likely that antimycin-induced PT and/or swelling of mitochondria led to a further reduction of this residual potential.
# As observed for the parent compound, antimycin A3, mitochondria with normal levels of BCl-xL expression were not affected by the 2-methoxy analog.
# [8] = target: T3, recombinant human Bcl-2ΔC22 (Homo sapiens, UniProt P10415); assay: Antimycin A3 fluorescence binding and competition assay
# T3 construct: poly-His (N); made in house
# T3 sequence (P10415 1-217 limits assumed, stated change not applied): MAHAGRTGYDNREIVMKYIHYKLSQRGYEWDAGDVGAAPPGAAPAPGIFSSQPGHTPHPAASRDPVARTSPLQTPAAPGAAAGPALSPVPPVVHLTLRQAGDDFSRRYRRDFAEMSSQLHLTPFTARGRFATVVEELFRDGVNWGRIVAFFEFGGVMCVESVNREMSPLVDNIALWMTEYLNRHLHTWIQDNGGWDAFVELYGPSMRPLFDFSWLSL
# Method: In this assay, 0 to 5 μM antimycin A3 (Sigma Chemical Co., St. Louis, Mo.) was added to a physiological buffer (50 mM Tris-HCl pH 8.0, 0.2 M NaCl, 2 mM EDTA, 0.5% v/v glycerol) containing recombinant Bcl-2 or BCl-xL protein under conditions that permitted antimycin A3 to bind to the BH3-binding domain of Bcl-2 or BCl-xL (22.5° C. on a Hitachi F-2500 fluorescence spectrofluorimeter equipped with a thermostatted cell holder). […] The excitation wavelength was 335 nm, and the maximum emission wavelength for antimycin A3 was 428 nm with a slit width of 10 nm. The samples were mixed in a quartz cuvette and checked for inner filter effect over the concentration range of antimycin A3 used for this study. Blanks containing antimycin A3 at the same concentration as the experimental samples were used as controls in all measurements and necessary background corrections were made.
# Recombinant human Bcl-2ΔC22 (a recombinant human Bcl-2 with a delection of 22 amino acid residue membrane anchor sequence from the carboxyl end) and mouse Bcl-xLΔC20 (a recombinant murine BCl-xL with a delection of the 20 amino acid residue membrane anchor sequence from the carboxyl end) fused with poly-His at the N-terminus were chromatographically purified to homogeneity. The concentrations of antimycin A3 and stock solutions of recombinant proteins were quantitated using an extinction coefficient of 7.24/mM/cm at 320 nm and by Bradford assay, respectively. The stoichiometric ratio of antimycin A3 and Bcl-2 producing the maximal change in antimycin A3 fluorescence was determined with incremental addition of antimycin A3 to a 1.98 μM solution of recombinant Bcl-2 in a volume of 2.1 milliliters. […] For peptide displacement experiments, a solution of 2 μM antimycin A3 and 3 μM Bcl-2 was allowed to reach binding equilibrium at 4° C. prior to fluorescence measurements. Native peptide corresponding to the BH3 domain of Bak (72-[…]87 (SEQ ID NO:1)) or a mutant peptide with a single amino acid change (Leu78Ala-BH3) was added to the solution and the fluorescence measurements were repeated. […]
# [9] = system: TABX2S cells (over-expressing Bcl-xL); assay: cells; conditions: for difference in sensitivity of the two cell lines: TABX2S vs TABX1A
# Description: (§2) Briefly, a DNA fragment encoding the full-length mouse BCl-xL cDNA was isolated from the plasmid PBS.BCL-xL (Tzung et al., Am. J. Path. 150:1985-1995, 1997, incorporated herein by reference in its entirety) by digestion with the restriction endonuclease EcoRI. This EcoRI fragment was cloned into the EcoRI site of the mammalian expression vector pSFFV (Fuhlbrigge et al., Proc. Nat. Acad. Sci. USA 85:5649-5653, 1988) in both sense and antisense orientations, to form expression plasmids pSFFV.Bcl-xL(sense) or pSFFV.Bcl-xL(antisense), respectively. The tumorigenic murine hepatocyte cell line TAMH was transfected by lipofection (Lipofectamine, Life Technologies, Rockville, Md., according to the manufacturer's recommendations) with the plasmids pSFFV.neo (the control), pSFFV.Bcl-xL(sense) or pSFFV.Bcl-xL(antisense). […] Transfectants were selected for the acquisition of neomycin resistance by growing cells in the presence of 750 μg/ml of G418. Bulk transfectants were cloned by limiting dilution and individual clones were screened by immunoblot analysis to determine the level of BCl-xL protein expression as described below.
# (§3) Selected transfectants were then tested for whole cell sensitivity to several apoptotic agents. Transfected cells were cultured to reach approximately 80% confluency prior to plating an equal number of cells from selected clones on 12-well tissue culture plates. The transplanted cells were treated with the following apoptotic agents: 5 μM doxorubicin for 48 hours; 5 μM cisplatin for 48 hours; or with 200 U/ml tumor necrosis factor (TNF) plus 1 μg/ml actinomycin D for 18 hours. Cell viability was determined by trypan blue dye exclusion. The percentage of viable cells was calculated by the number of viable cells (treated with a particular apoptogenic agent) divided by the number in the control group (untreated).
# TABX2S cells and TABX1A cells were also examined for the effects of various mitochondrial inhibitors. […] Azide was diluted from an aqueous stock solution. […] Controls received an equivalent concentration of diluent. At various time points after drug treatment, cells were trypsinized, and cell viability was determined by trypan blue dye exclusion. The number of viable cells were counted and normalized to control group (i.e., % control=number of viable cells (treated group)/number of viable cells (control group)×100).
# [10] = system: TABX1A cells (under-expressing Bcl-xL); assay: Cell viability by trypan blue dye exclusion; conditions: Mus musculus, 48 h, read-out: cells remained viable
# Description: as §2
# as §3, with “The transplanted cells were treated with the following apoptotic agents: 5 μM doxorubicin for 48 hours; 5 μM cisplatin for 48 hours; or with 200 U/ml tumor necrosis factor (TNF) plus 1 μg/ml actinomycin D for 18 hours.” left out
# (§4) TABX2S cells and TABX1A cells were also examined for the effects of various mitochondrial inhibitors. […] At various time points after drug treatment, cells were trypsinized, and cell viability was determined by trypan blue dye exclusion. The number of viable cells were counted and normalized to control group (i.e., % control=number of viable cells (treated group)/number of viable cells (control group)×100).
# TAMH.neo cells (control) = assay: Cell viability by trypan blue dye exclusion; conditions: Mus musculus, 48 h, read-out: cells remained viable
# Description: as §2
# as §3, with “The transplanted cells were treated with the following apoptotic agents: 5 μM doxorubicin for 48 hours; 5 μM cisplatin for 48 hours; or with 200 U/ml tumor necrosis factor (TNF) plus 1 μg/ml actinomycin D for 18 hours.” left out
# as §4
# RPMI-8226 = assay: Propidium iodide exclusion / flow cytometry cytotoxicity; type: cell-based, human; conditions: oligomycin 2-10 mg/ml, rotenone 0.5-2.5 mg/ml
# Method: (§5) Cell survival was assayed by exclusion of propidium iodide (PI; 10 μg/ml) by unfixed cells. Annexin V-FITC (Pharmingen) or 3, 3′-dihexyloxacarbocyanine iodide (DiOC6(3); Molecular Probes) staining was analyzed together with PI to discriminate early apoptotic cells. Apoptotic cells were also measured as sub-G1 events among ethanol-fixed cells stained with 10 μg/ml PI. All cell samples were analyzed using a benchtop FACSCalibur™ (Becton Dickinson, San Jose, Calif.). Flow data were analyzed using MultiCycle AV software (Phoenix Flow Systems). For intracellular pH measurements, cell pellets were washed once and resuspended in 2 ml of HEPES-buffered medium (no phenol red and no serum). Carboxy-SNARF-1-AM (Molecular Probes, 1 mM stock in DMSO, stored at −20° C.) was added to a final concentration of 10 μM, and the cells were incubated for 30 min at 37° C. Following incubation with SNARF, cells were sedimented and the pellets were held on ice. Immediately before analysis, pellets were resuspended in […] (HBSS; experimental buffer) or high-[K+] buffer containing nigericin (calibration samples).
# NCI-H929 = assay: as above; type: cell-based, human; conditions: oligomycin 2-10 mg/ml, rotenone 0.5-2.5 mg/ml
# Method: as §5
# U266 = assay: as above; type: cell-based, human; conditions: oligomycin 2-10 mg/ml, rotenone 0.5-2.5 mg/ml
# Method: as §5
compound,measurement,setting,value
CC(C)C(C(=O)O)N1C(=O)/C(=C\c2ccc(Br)cc2)SC1=S (stereo not shown) [BH3I-1],effect on Bcl-xL pore-forming activity,Bcl-xL(ΔC) WT,no effect
same,Ki,Bcl-xL(ΔC),1870 ± 617 nM
"CN[C@@H]1C[C@H]2O[C@@](C)([C@@H]1OC)n1c3ccccc3c3c4c(c5c6ccccc6n2c5c31)C(=O)NC4 [STS, staurosporine]",Cytotoxicity LD50,[1],0.52 ± 0.12 µM
same,Cytotoxicity LD50,[2],0.58 ± 0.1 µM and 0.58 ± 0.14 µM
same,Cytotoxicity LD50,[3],0.49 ± 0.11 µM
same,Cytotoxicity LD50,[4],0.38 ± 0.04 µM
same,Cytotoxicity LD50,[5],0.34 ± 0.10 µM
same,Cytotoxicity LD50,[6],0.11 ± 0.01 µM
"CCCC[C@H]1C(=O)O[C@H](C)[C@H](NC(=O)c2cccc(NC=O)c2O)C(=O)O[C@@H](C)[C@@H]1OC(=O)CC(C)C [antimycin A3, reference compound]",mitochondrial depolarization (JC-1),[7],not affected
same,increase of intrinsic fluorescence at 428 nm in the presence of Bcl-2,[8],≤ 18%
COc1cccc2c1C(=O)c1c(O)c3c(c(O)c1C2=O)C[C@@](O)(C(=O)CO)C[C@@H]3O[C@H]1C[C@H](N)[C@H](O)[C@H](C)O1 [doxorubicin],viability at 5 µM,"[9]; Mus musculus, 48 h, read-out: cells remained viable",88%
same,viability at 5 µM,[10],20%
same,viability at 5 µM,TAMH.neo cells (control),50%
CC[C@H]1/C=C/C=C/C[C@@H](C)[C@H](O)[C@@](C)(O)C(=O)[C@@H](C)[C@H](O)[C@@H](C)C(=O)[C@@H](C)[C@H](O)[C@@H](C)/C=C/C(=O)O[C@@H]2[C@H](C)[C@H](CC1)O[C@]1(CC[C@H](C)[C@H](C[C@@H](C)O)O1)[C@H]2C [oligomycin],difference in sensitivity of the two cell lines,[9],no significant differences
same,cell killing by oxidative phosphorylation inhibitors,RPMI-8226,Only NCI-H929 cells were killed
same,cell killing by oxidative phosphorylation inhibitors,NCI-H929,killed
same,cell killing by oxidative phosphorylation inhibitors,U266,Only NCI-H929 cells were killed
C=C(C)[C@H]1Cc2c(ccc3c2O[C@@H]2COc4cc(OC)c(OC)cc4[C@@H]2C3=O)O1 [rotenone],difference in sensitivity of the two cell lines,[9],no significant differences
same,time until cell death apparent,"[9]; after treatment, TABX2S and TABX1A cells",six to eight
same,cell killing by oxidative phosphorylation inhibitors,RPMI-8226,none of the myeloma cell lines were killed
same,cell killing by oxidative phosphorylation inhibitors,NCI-H929,none of the myeloma cell lines were killed
same,cell killing by oxidative phosphorylation inhibitors,U266,none of the myeloma cell lines were killed
